Series [1] addresses USP1 (Recombinant Human His6-USP1/His6-UAF1 Complex Protein) (Homo sapiens (Human), UniProt O94782). Put plainly: In vitro activity assay for USP1 (Ub-CHOP2-Reporter deubiquitination assay). Particulars: 0.5 h incubation at room temperature, read-out: In vitro inhibitory activity of USP1 IC50. It is filed as biochemical. In short, it runs like this:
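His6-USP1/His6-UAF1 complex was mixed with compound in 20 mM Tris-HCl pH 8.0, 2 mM CaCl2, 2 mM β-mercaptoethanol and 0.05% CHAPS. Ub-CHOP2 reporter system plus substrate was added, then incubated 0.5 h at room temperature. IC50 came from a four-parameter logistic fit.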

The target in another series is CYP3A4 (Homo sapiens (Human), UniProt P08684). The series is described as follows: CYP enzyme inhibition in pooled human liver microsomes (midazolam). It is filed as in vitro ADME. On the procedure:
Typical substrate metabolic responses of five major human CYP subtypes (CYP1A2, CYP2C9, CYP2C19, CYP2D6, CYP3A4) were evaluated using 150-donor pooled human liver microsomes (purchased from Corning, Cat. No.: 452117). The influence of different concentrations of each compound to be tested on metabolic responses of phenacetin (CYP1A2), diclofenac sodium (CYP2C9), S-mephenytoin (CYP2C19), bufuralol hydrochloride (CYP2D6), and midazolam (CYP3A4) was determined by liquid chromatography-mass spectrometry (LC/MS/MS). […] Then 200 μL of acetonitrile solution containing 3% formic acid and 40 nM internal standard verapamil was added and centrifuged at 4000 rpm for 50 min. The mixture was cooled on ice for 20 min and centrifuged at 4000 rpm for 20 min to precipitate the protein. Then 200 μL of supernatant was analyzed by LC-MS/MS. The peak area was calculated from the chromatogram. The residual activity ratio (%) was calculated according to the following equation: Peak area ratio=metabolite peak area/internal standard peak area Residual activity ratio (%)=peak area ratio of compounds-to-be-tested group/peak area ratio of blank group The half inhibitory concentration (IC50) for CYP was calculated by Excel XLfit 5.3.1.3.
In general terms: Liver microsomes are vesicles of endoplasmic reticulum, rich in cytochrome P450 enzymes.

Series [2] is described as follows: Metabolic stability in vitro in human hepatocytes. It is filed as in vitro ADME. The conditions noted are these: read-out: Intrinsic clearance. The method, then: The concentration of each compound in the reaction system was measured by LC/MS/MS to calculate the intrinsic clearance of the compounds to be tested, and evaluate the metabolic stability in vitro in human hepatocytes.
To the incubation plate, 198 μL of 0.5×10^6 cells/mL human hepatocyte mixture and 2.0 μL of 100 μM compound to be tested or positive control were added to initiate reaction. Incubation was performed at 900 rpm at 37° C. […] Then the mixture was vortex-mixed for 5 min. […] Then 100 μL of supernatant of each compound was transferred to a 96-well sample plate, and 100 μL of purified water was added to dilute the sample.
The resulting samples were quantified by ion chromatograms. The residual rate was calculated from peak areas of the compounds to be tested or the positive control. The slope k was determined using Microsoft Excel by linear regression of natural logarithm of the residual rate to the incubation time. The intrinsic clearance (in vitro CLint, μL/min/10^6 cells) was calculated from the slope value according to the following equation: […]

Series [3] is described as follows: Solubility (PBS pH 7.4) of compound solids. In kind it is physicochemical. The conditions noted are these: aqueous buffer, thermodynamic from solid, PBS pH 7.4, 25° C. On the procedure:
The solubility (PBS pH 7.4) of compound solids to be tested was determined by LC/MS/MS. Approximately 1 mg of each compound powder was accurately weighed into a glass vial, and DMSO was added in a volume of 1 mL per milligram of compound. […] In 490 μL of water and acetonitrile (1:1) containing an internal standard, 5 μL of 1 mg/mL solution and 5 μL of PBS pH 7.4 solution were mixed to prepare 10 μg/mL standard concentration solution of the sample to be tested. Then 10 μL of 10 μg/mL solution was diluted in 90 μL of water and acetonitrile (1:1) containing an internal standard to prepare 1 μg/mL standard concentration solution of the sample to be tested. The dilution factor of the standard solution can be adjusted according to the strength of response signals in LC/MS. Approximately 1 mg of each compound powder was accurately weighed into a glass vial, and PBS pH 7.4 solution was added in a volume of 1 mL per milligram of compound. A stir bar was added to each vial, and the solubility sample vial was shaken at 1100 rpm at 25° C. for 24 h. After shaking, the stir bar was removed, and the sample was transferred to a filter plate and filtered using a vacuum manifold. […]
The resulting samples were determined by LC/MS/MS. The sample solubility was calculated from peak areas of the solution of the compound to be tested and the standard concentration solution, according to the following equation: […]

Where two headings read alike, the source gives them in different places.
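For GI50 in this document: MDA-MB-436 proliferation over 7 days with compound, viability read as ATP luminescence (CellTiter-Glo), inhibition relative to DMSO-only wells, day 0 signal as background, GI50 from four-parameter fit.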

Sequence of CYP3A4 (P08684 whole entry): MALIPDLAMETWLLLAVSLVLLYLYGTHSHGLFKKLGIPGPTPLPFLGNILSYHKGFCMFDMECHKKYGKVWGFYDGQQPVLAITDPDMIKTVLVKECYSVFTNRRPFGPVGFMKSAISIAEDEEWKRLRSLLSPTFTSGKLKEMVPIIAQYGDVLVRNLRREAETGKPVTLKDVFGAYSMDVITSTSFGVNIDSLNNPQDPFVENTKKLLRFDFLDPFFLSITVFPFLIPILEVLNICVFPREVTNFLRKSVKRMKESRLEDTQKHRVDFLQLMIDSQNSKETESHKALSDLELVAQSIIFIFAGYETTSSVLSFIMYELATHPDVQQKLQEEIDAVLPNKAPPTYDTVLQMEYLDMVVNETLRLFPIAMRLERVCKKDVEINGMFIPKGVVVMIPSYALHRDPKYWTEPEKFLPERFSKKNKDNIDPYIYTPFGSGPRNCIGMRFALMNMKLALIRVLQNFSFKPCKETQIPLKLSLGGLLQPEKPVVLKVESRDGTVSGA
Sequence of USP1 (Recombinant Human His6-USP1/His6-UAF1 Complex Protein) (O94782 whole entry): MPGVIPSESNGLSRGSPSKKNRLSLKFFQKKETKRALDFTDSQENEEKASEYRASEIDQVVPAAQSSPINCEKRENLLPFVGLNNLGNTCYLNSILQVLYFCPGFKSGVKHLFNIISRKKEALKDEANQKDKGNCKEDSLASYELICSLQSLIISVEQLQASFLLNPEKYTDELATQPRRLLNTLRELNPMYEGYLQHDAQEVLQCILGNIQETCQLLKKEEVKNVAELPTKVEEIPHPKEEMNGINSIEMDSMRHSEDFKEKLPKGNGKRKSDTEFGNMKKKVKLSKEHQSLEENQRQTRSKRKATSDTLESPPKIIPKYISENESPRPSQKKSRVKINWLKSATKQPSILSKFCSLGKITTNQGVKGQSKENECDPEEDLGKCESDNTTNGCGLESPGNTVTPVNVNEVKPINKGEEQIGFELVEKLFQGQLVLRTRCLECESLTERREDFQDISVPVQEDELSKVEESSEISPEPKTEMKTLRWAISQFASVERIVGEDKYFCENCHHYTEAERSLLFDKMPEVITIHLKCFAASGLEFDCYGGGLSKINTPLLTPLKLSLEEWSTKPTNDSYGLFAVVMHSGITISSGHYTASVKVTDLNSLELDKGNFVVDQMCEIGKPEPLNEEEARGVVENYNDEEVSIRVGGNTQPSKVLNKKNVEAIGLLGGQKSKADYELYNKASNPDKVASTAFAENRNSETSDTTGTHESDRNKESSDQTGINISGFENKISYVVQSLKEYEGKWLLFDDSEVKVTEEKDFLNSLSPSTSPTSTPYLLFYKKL
Sequence of USP1 (Recombinant Human His6-USP1/His6-UAF1 Complex Protein) (Q8TAF3 whole entry partner): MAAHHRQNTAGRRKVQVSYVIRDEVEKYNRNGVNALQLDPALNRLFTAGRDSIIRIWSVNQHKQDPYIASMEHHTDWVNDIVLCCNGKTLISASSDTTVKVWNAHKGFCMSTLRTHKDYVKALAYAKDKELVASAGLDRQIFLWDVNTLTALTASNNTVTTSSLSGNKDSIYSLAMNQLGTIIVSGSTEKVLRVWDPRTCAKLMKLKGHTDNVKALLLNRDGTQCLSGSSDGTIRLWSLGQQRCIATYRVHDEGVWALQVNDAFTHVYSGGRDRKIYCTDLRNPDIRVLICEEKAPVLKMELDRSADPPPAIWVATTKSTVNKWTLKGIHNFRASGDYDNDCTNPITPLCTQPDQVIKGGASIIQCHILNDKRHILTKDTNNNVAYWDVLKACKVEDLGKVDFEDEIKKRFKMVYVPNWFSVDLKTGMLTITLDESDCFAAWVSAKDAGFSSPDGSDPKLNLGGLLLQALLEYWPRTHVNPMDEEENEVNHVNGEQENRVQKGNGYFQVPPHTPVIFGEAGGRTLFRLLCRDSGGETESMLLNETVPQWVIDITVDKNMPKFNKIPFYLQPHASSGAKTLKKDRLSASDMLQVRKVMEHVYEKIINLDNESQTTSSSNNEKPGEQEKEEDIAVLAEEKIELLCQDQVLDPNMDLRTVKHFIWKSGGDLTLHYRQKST

Turning to `COc1ncnc(C2CC2)c1-c1ncc2c(n1)N(Cc1ccc(-c3nc(C(F)(F)F)cn3C)cc1)CC(=O)N2C` [Compound 11, 2-(4-cyclopropyl-6-methoxypyrimidin-5-yl)-5-methyl-8-(4-(1-methyl-4-(trifluoromethyl)-1H-imidazol-2-yl)benzyl)-7,8-dihydropteridin-6(5H)-one], the IC50 (usually the concentration needed to halve the response being measured) in series [1] was 45.4 nM; against CYP3A4, over 30000 nM. In addition, the hepatocyte CLint at 1 μM in series [2] was under 1 µL/min/1e6 cells. The solubility – broadly, the dissolved amount per volume that the medium holds – at 24 h in series [3] (read-out: Calculated solubility) was 181 µM; in series [3] (read-out: Solubility) it was 99.7 µg/mL. In addition, the GI50 (as a rule, the concentration at which growth is held to half of that of the control) in the series on MDA-MB-436 cells was determined as 32.8 nM.

The values are drawn from patent US20240226107A1, “UBIQUITIN-SPECIFIC PROTEASE 1 (USP1) INHIBITOR” (SIMCERE ZAIMING PHARMACEUTICAL CO., LTD., priority 2021, published 2024).
